For assay [1], the system named is Staphylococcus areus (SA; strain LS1) infected joints. Briefly: Arthritis by arthritogenic Staphylococcus areus (strain LS1), joint pressure. The assay is classed as in vivo, rat. The source says:
Joints are enclosed by tender, noncompliant collagen capsules, further characterised by low elasticity but plasticity. At arthritis, the pressure in the synovial fluid in the joint cavity turns elevated, and inflammation adds to the symptoms. A CS is prevalent. In order to investigate if treatment with AF-16 could prevent or at least reduce the development of such a CS, adult rats were infected by systemic injection of a solution of an arthritogenic Staphylococcus areus (SA; strain LS1). One group of animals (n=3) were treated with AF-16 while a second group of rats (n=3) just received the vehicle, PBS. After a few days the knee joints and later on additional limb and foot joints turned tender, swollen and got elevated pressure in the joint cavities, as measured with the Samba Fibre Optic Pressure probe (Samba System 3200 & Samba Preclin 420 sensor; Samba Sensors AB, Gruvgatan 6, SE 42130 V. Frolunda, Sweden), as well as in the immediately surrounding tissue. The pressure in a normal synovial large joint is 0-5 mm Hg, but could increase more than five-fold in infected, inflamed joints. The interstitial fluid pressure in the subcutaneous tissue at a distance from the infected joint was measured for comparison and found to remain within normal limits, ±2 mm Hg. […] Infected animals, which only received treatment with the vehicle, PBS, developed CS of with time increasing severity.

Assay [2] has as its system intervertebral discs. In words: Injured or loaded intervertebral discs. The format is in vivo, rodents, rabbits and pigs. The source says: The intervertebral discs, which separate the vertebral bodies in the spine, adjust their dimensions according to the actual load many times a day. The water content in the avascular nucleus pulposus and the annulus fibrosus in a disc is dependant on the supply of fluid, ions, nutrients and oxygen from adjacent ligaments and from the end plates of the vertebrae (Cf. Holm et al., 2007). Vast products from an avascular disc must pass through the same obstacles prior to reaching vascular systems. Therefore, rodents, rabbits and pigs have been assessed regarding effects of AF protein and of AF peptides with regard to effects on the intervertebral discs when loaded and unloaded. […] It is thus disclosed that the AF compounds are beneficial in reducing the swelling and tissue damage at trauma or deformation and/or excessive load on intervertebral discs.

Assay [3] concerns HSV-1. In words: Immunohistochemical demonstration of HSV antigens in brain, mice. The assay is classed as in vivo. The note with it: instillation twice daily in right nostril, six days. On the procedure:
An alternative explanation to the improved survival of HSV-1 infected animals could be that the treatment with AF-16 prevented the virus from multiplying and/or spreading in the brain. […] Adult rats were infected by having a solution of the herpes simplex virus type 1 (HSV-1; strain 2762, batch 041028; 1.7×10^7 PFU/mL) instilled in their right nostril. Half of the animals received 10 min later 25 pi_ (1 or 10 pg) of AF-16 in their right nostril, and had thereafter the same dose of AF-16 instilled every morning at 8 AM and every night at 6 PM until the experiment was terminated on day 6. The other groups of the HSV-1 infected rats received at the same time intervals 25 pL of the vehicle, PBS. The animals were closely watched for signs of general sickness and of behavioral and motor dysfunction. The animals were sacrificed by an overdose of anesthetics on day 6, the skull opened and the brain removed. The brains, including the olfactory bulbs, were fixed by immersion in buffered formalin for at least a day. The brains were the dissected and divided in several specimens, which were processed for light microscopic investigation after paraffin embedding and sectioning. The sections were processed for routine staining and for immunohistochemical visualization of HSV-1 proteins (FIG. 4). […] Note the distinct staining of the nerve cells (black in FIG. 4a-c).

Assay [4] concerns femoral artery. In words: Injured arteries, local delivery by osmotic minipump. The assay is classed as in vivo, rat. The source says:
During surgery and at a trauma arteries may be injured, causing the vascular wall to swell. These events will result in the development of elevated IFP in the vascular wall, resulting in inflammatory reactions and rebuilding (Hansson, Jennische & Skottner, 1987). […] Additional animals had for comparison their pumps filled with the vehicle. The injured arteries were investigated either 3, 5, 7 or 14 days later. Blood vessels recovered from the vehicle-treated animals were tender, had increased outer diameter and were swollen. […] The potency rate was higher for those treated with AF-16 as compared to the vehicle exposed ones. […] Further, the number of macrophages, foam cells and lymphocytes was as well reduced by the AF-16 treatment.

Assay [5] concerns ICP after subarachnoidally deposited blood. In words: Cerebral CS induced by autologous blood in the subarachnoid space, ICP. The format is in vivo, Sprague-Dawley rats. An excerpt: A different type of cerebral CS was induced by the injection of […] whole blood in the subarachnoid space, a procedure known from the literature to result in the development of brain oedema and elevated ICP. Anaesthetized adult rats had 50-350 pL heparinzed autologous blood deposited in the subarachnoid space through a small hole drilled in the occipital bone or by injection into the cistern magna through the atlanto-occipital membrane. Holes drilled in a skull bone were eventually plugged with SuperBond@ glue. Such treatments with subarachnoidally deposited blood increased the ICP, inducing the development of a CS in a day or within a week, the exact time depending on the conditions and amount of blood deposited, in agreement with reports in the medical literature. In our experiments, injection of 0.2-0.3 mL autologous, heparinized blood in the cisterna magna in adult Sprague-Dawley rats resulted within 1-3 days in an elevation of the ICP to 13 to 30 mm Hg, as assessed with an implanted miniature pressure light guided probe (Samba System 3200 & Samba Preclin 420 sensor; Samba Sensors AB, Gruvgatan 6, SE 42130 V. Frolunda, Sweden). The ICP in normal adult rats, either non-treated or having had phosphate buffered saline (PBS) injected instead, was 6-9 mm Hg. […] This means that AF-16 is abolishing and, in case of already established cerebral CS, reducing its severity. The prompt response to AF-16 was decisive for the beneficial effect exerted by AF-16.

Consider VCHSKTRSNPENNVGL [AF-16], for which, in assay [1] (SA infected large joint), the “joint tenderness, swelling, pain” value was “did not have that tender, swollen and painful joints”. In addition, the “pressure in the infected joint” value in assay [1] (SA infected large joint, n=3, normal joint 0-5 mm Hg) was “close to normal pressure in the joint”. Moreover, in assay [1] (larger joints), the “number of S. areus in synovial fluid, treated vs not” value was “about the same”. In addition, the “stiffness of intervertebral connections and deformation induced” value in assay [2] (after supramaximal loads or trauma, vs vehicle) was “closer to normal”. Besides, in assay [2] (in vivo), the “damage to nucleus pulposus (light microscopy)” value was “less damage to the nucleus pulposus”; the “swelling and inflammatory reactions of injured intervertebral discs” value is “reduced the swelling and the inflammatory reactions”. The “distribution or extent of virus antigens in the brain vs vehicle” value in assay [3] is recorded as “no obvious difference in the distribution or extent of virus antigens”. Also, the “swelling and inflammation of injured vessels” value in assay [4] (3, 5, 7 or 14 days, vs vehicle) was “less swollen and inflamed”. Moreover, the “damage, inflammatory reactions and reactive alterations (neointima) of femoral artery” value in assay [4] (after 14 days, vs vehicle) was “less damage and less prominent inflammatory reactions and less extensive reactive alterations”. Also, in assay [4] (rat, in vivo), the “number of macrophages, foam cells and lymphocytes” value is reported as “reduced”. The potency rate result in assay [4] (vs vehicle) is recorded as “higher”. Moreover, the ICP after treatment result in assay [5] (25 pg AF-16 intranasally twice daily) is recorded as “almost normal levels”. In addition, the “brain, behavioral and motor function” value in assay [5] (25 pg AF-16 intranasally twice daily, vs vehicle) is reported as “neither signs of impaired brain function nor any gross obvious impairment of behavioral or motor functions”. Also, the “time for elevated ICP to turn to almost normal levels” value in assay [5] (25 pg AF-16 intranasally twice daily, elevated ICP 13 to 30 mm Hg, normal 6-9 mm Hg) lay in the range of 1 to 2 h. For the same sequence, in assay [5] (vs vehicle PBS), the “extent and severity of brain damage” value is “reduced the extent and severity of the brain damage”.

The record behind these values is US8389468B2, “Approach to the treatment of compartment syndrome” (Lantmannen AS-Faktor AB, priority 2006, dated 2013).
